According to patent publication US20240016924A1, “NEW ADJUVANT TO IMPROVE THE INNATE IMMUNITY” (INSTITUT NATIONAL DE LA SANTÉ ET DE LA RECHERCHE MÉDICALE, priority 2020, published 2024):

Key:
Assay type in all cases: cell-based, human
autologous CD4+ T cells = assay: DC-T co-cultures, CD4+ T cell proliferation (CFSE)
Method: Autologous CD4+ T cells were purified from PMBCs by negative selection according to manufacturer instructions (StemCell Technologies, France) (purity>95%)
DCs and confluent ECs were co-cultured overnight as described above, and DC-EC or eduDC was further incubated with P1 (clade B, 125 μM) or medium for 24 h. Then, DCs were separated and incubated with autologous CD4+ T cells pre-labeled with CFSE (Thermo Fisher) according to the manufacturer's instructions, at a ratio of 1:5 (DC/T). After 5 days of culture, CD4+ T cell proliferation was analyzed by flow cytometry as described (Yeh, Yeh et al. 2013, Qin, Yin et al. 2015) using Phytohaemagglutinin (PHA) (5 μg/mL) as positive control.

nasal RPMI cells [1] = assay: Calcium measurement (Fura-2/AM), nasal RPMI cells; conditions: P1 125 μM vs 2511M, controls at 125 μM, n=3
Method: 70-80% confluent RPMI 2650 or HNEC cells in 24-well plate were loaded with […] Fura-2/AM (Molecular Probes) in basal medium without serum/growth factors for 1 hour at 37° C. Cells were washed twice with mammalian saline (Conche, Boulla et al. 2009) and measurements were performed in complete medium supplied with HEPS (10 mM) and CaCl2 (2 mM) as described add (Conche, Boulla et al. 2009). Images were acquired with an inverted fluorescence microscope (Observer Z1, Zeiss, Germany) and analyzed with MetaMorph software (Guichard, Bonilla et al. 2017) Calcium was measured every 5 seconds by video fluorescence imaging. Results were expressed as 340 nm to 380 nm fluorescence ratio and normalized to the baseline, i.e. ratio at time zero was set as 1.

nasal RPMI cells [2] = assay: Cytokines and chemokines quantification (Luminex), nasal RPMI cells; conditions: 125 μM, 24 hrs
Method: TSLP, IL-25/IL-17E, IL-33, IFN-γ, IL-10, IL-12/23p40, IL-4, IL-5, IL-6, IL-13, TNF-α, MMP-9, IL-8/CXCL8, […], MDC/CCL22, TARC/CCL17, APRIL and BAFF were measured in culture supernatants from indicated experiments with custom multiplex Luminex assays (Bio-techne) according to the manufacturer's instructions. Additionally, when indicated TSLP was measured in culture supernatants by enzyme-linked immunosorbent assay (ELISA) with a limit of detection of 8 pg/ml (Thermo Fisher) according to the manufacturer's instructions.
We next investigated whether, in addition to TSLP, P1 could stimulate epithelial secretion of additional immune factors prone to attract antigen presenting cells (APCs). […] Together with TSLP (Zhou, Xu et al. 2018), this set of immune factors could facilitate recruitment of APCs to the mucosal surface for initiation of an immune response, since CCL20 and CCL2 chemo-attract macrophages and immature dendritic cells (DCs), and MMP-9 degrades the extracellular matrix and facilitates the migration of immune cells in or out the epithelium. Treg cells have IgA-inducing functions and require RA, TGF-b1, IL-10, and TSLP from intestinal epithelial cells and DCs. So, we assumed IL-10 released from either EC or DC may contribute to IgA class switching (Gutzeit, Magri, et al. 2014).

[3] = system: CD8-depleted PBMCs cocultured with RPMI 2650 cells; assay: In vitro immunization assay with ovalbumin
Method: In vitro immunization assay was performed as reported (Jung, Matsumoto et al. 2007) with modifications. Briefly, 1×10^6 CD8-depleted PBMCs (Human CD8 Depletion Cocktail, StemCell Technologies, France) were cocultured for 24 hrs with RPMI 2650 cells ([…]) pre-seeded in 48 well plates for 48 hrs. Then, ovalbumin (OVA, EndoFit Ovalbumin, 10 µg/mL, Invivogen) alone, OVA together with P1 (5 μM, 25 μM, 125 μM), OVA together with P1 mutant (P1mut, 125 μM), or medium were added to in RPMI 1640 medium supplemented with Non-Essential Amino Acids (NEAA solution, Thermo Fisher), IL-4 ([…]), IL-2 (10 UI/mL) and 2-mercaptoethanol (20 μM) for 7 days.
For the detection of OVA-specific B cells, at indicated time of culture, PMBCs were surface stained with ovalbumin conjugated to fluorescein (OVA-FITC, 20 ug/mL, Thermo), PE-conjugated mouse anti-human CD20 (BD Biosciences, CA, USA), APC-conjugated goat anti-human IgA or donkey anti-human IgG (Jackson ImmunoResearch, PA, USA) as indicated by the manufacturer. Specific labeling was quantified by flow cytometry with a Guava EasyCyte flow cytometer (Merck-Millipore), and analyzed with the dedicated InCyte software, using the following strategy: CD20+ B cells were first gated and cell double positive for OVA-FITC+ and APC-conjugated anti-IgA or anti-IgG were determined as OVA-IgA or IgG-specific B-cell s.
In vitro immunization assays have been used to produce specific monoclonal antibodies using a defined antigen complemented with an adjuvant (Borrebaeck, Danielsson et al. 1987). Here, we establish a mucosal immunization model adapted from (Jung, Matsumoto et al. 2007, Yeh, Yeh et al. 2013, Wijkhuisen, Savatier et al. 2016) and using mucosal DCs based on our results presented above. OVA was selected as the model antigen. Therefore, human CD8-depleted PBMCs (n=5 independent donors) were cocultured with RPMI 2650 cells for one day to educate DCs, and prior to addition of either medium, OVA, OVA plus P1 mutant (P1mut, 125 μM) or OVA plus P1 (5 μM, 25 μM, 125 μM) for seven more days. OVA-specific B cells were quantified by flow cytometry using FITC-conjugated OVA and anti-CD2O-PE to gate on OVA-specific B cells. The Ig isotype of surface B cell receptor (BCR) was next characterized by APC-conjugated anti-human-IgA or anti-human-IgG. […] Similar results were obtained when B cells were stained with anti-CD19-PE.

**Q.** Which results are given for “SQNQQEKNEQELLELDKWASLWNWFNITNWLWYIK [P1]”?
**A.** proliferation of CD4+ T cells (autologous CD4+ T cells; P1 stimulation on CD4+ T cells alone): has no effect; proliferation of autologous CD4+ T cells (autologous CD4+ T cells; peptide-primed eduDCs, 125 μM, 5 days, DC/T 1:5): induced the proliferation of autologous CD4+ T cells; extracellular calcium influx (340/380 nm ratio) (nasal RPMI cells [1]): induces an immediate extracellular calcium influx in a concentration-dependent manner; secretion of MMP-9, CCL20, CCL2 and IL-10 (nasal RPMI cells [2]): selectively induced the secretion of MMP-9, CCL20, CCL2 and IL-10; induction of OVA-specific B cells ([3]; OVA plus P1 at 5 μM and 25 μM, 7 days): very limited; OVA-specific B cells (surface OVA-specific IgA and IgG) ([3]; OVA plus P1 at 125 μM, 7 days, n=5 donors): significantly enhances OVA recognition by B cells; induction of OVA-specific B cells ([3]; absence of nasal epithelial cells during the in vitro immunization): not able to induce OVA-specific B cells; OVA-specific antibody secretion in culture supernatants ([3]; day 7, ELISA): could not be detected by ELISA
